{
  "source": "patent US4309554A",
  "about": "“3-(2-Thiophenesulfonyl)-2-halopropanenitriles” (The Dow Chemical Company, priority 1980, dated 1982)",
  "type_in_all_cases": "cell-based",
  "key": {"[1]": {"tested_on": "S. aureus", "assay": "in vitro agar Petri dish dilution test, MIC against S. aureus", "conditions": "Staphylococcus aureus; S. aureus (Sa)", "from_the_text": "(§1) The compounds have antimicrobial utility. In conventional in vitro agar Petri dish dilution tests for determining antimicrobial activity, the compounds of the Examples had minimum inhibitory concentrations (MIC) against the indicated organisms in parts per million (ppm) as follows: […]"}, "[2]": {"tested_on": "C albicans", "assay": "in vitro agar Petri dish dilution test, MIC against C albicans", "conditions": "C albicans (Ca)", "from_the_text": "as §1"}, "[3]": {"tested_on": "T. mentagrophytes", "assay": "in vitro agar Petri dish dilution test, MIC against T. mentagrophytes", "conditions": "Trichophyton mentagrophytes; T. mentagrophytes (Tm)", "from_the_text": "as §1"}, "[4]": {"tested_on": "A. niger", "assay": "in vitro agar Petri dish dilution test, MIC against A. niger", "conditions": "Aspergillus niger; A. niger (An)", "from_the_text": "as §1"}, "[5]": {"tested_on": "B. subtilis", "assay": "in vitro agar Petri dish dilution test, MIC against B. subtilis", "conditions": "Bacillus subtilis; B. subtilis (head Be, footnote Bs)", "from_the_text": "as §1"}, "[6]": {"tested_on": "A. aerogenes", "assay": "in vitro agar Petri dish dilution test, MIC against A. aerogenes", "conditions": "Klebsiella aerogenes; A. aerogenes (Aa)", "from_the_text": "as §1"}, "[7]": {"tested_on": "C. pelliculosa", "assay": "in vitro agar Petri dish dilution test, MIC against C. pelliculosa", "conditions": "Hansenula anomala; C. pelliculosa (Cp)", "from_the_text": "as §1"}, "[8]": {"tested_on": "P. pullulans", "assay": "in vitro agar Petri dish dilution test, MIC against P. pullulans", "conditions": "P. pullulans (Pp)", "from_the_text": "as §1"}, "[9]": {"tested_on": "Pseudomonas Sp. Strain 10", "assay": "in vitro agar Petri dish dilution test, MIC against Pseudomonas Sp. Strain 10", "conditions": "Pseudomonas Sp. Strain 10 (Ps 10)", "from_the_text": "as §1"}, "[10]": {"tested_on": "Ceratocystis IPS", "assay": "in vitro agar Petri dish dilution test, MIC against Ceratocystis IPS", "conditions": "Ceratocystis IPS (CI)", "from_the_text": "as §1"}, "[11]": {"tested_on": "Trichoderm Sp. Madison P42", "assay": "in vitro agar Petri dish dilution test, MIC against Trichoderm Sp. Madison P42", "conditions": "Trichoderm Sp. Madison P42 (Tr 42)", "from_the_text": "as §1"}, "[12]": {"tested_on": "E. coli", "assay": "in vitro agar Petri dish dilution test, MIC against E. coli", "conditions": "Escherichia coli; E. coli (Ec)", "from_the_text": "as §1"}, "[13]": {"tested_on": "S. typhosa", "assay": "in vitro agar Petri dish dilution test, MIC against S. typhosa", "conditions": "S. typhosa (St)", "from_the_text": "as §1"}},
  "data": [
    {"smiles": "Cc1ccc(S(=O)(=O)CC(Cl)C#N)s1", "note": "(stereo not drawn) [2(a)]", "values": [
      {"measurement": "MIC", "setting": "[1]", "value": 50, "unit": "µg/mL"},
      {"measurement": "MIC", "setting": "[2]", "value": 50, "unit": "µg/mL"},
      {"measurement": "MIC", "setting": "[3]", "value": 50, "unit": "µg/mL"},
      {"measurement": "MIC", "setting": "[4]", "value": 50, "unit": "µg/mL"},
      {"measurement": "MIC", "setting": "[5]", "value": 10, "unit": "µg/mL"},
      {"measurement": "MIC", "setting": "[6]", "value": 50, "unit": "µg/mL"},
      {"measurement": "MIC", "setting": "[7]", "value": 50, "unit": "µg/mL"},
      {"measurement": "MIC", "setting": "[8]", "value": 50, "unit": "µg/mL"},
      {"measurement": "MIC", "setting": "[9]", "value": 500, "unit": "µg/mL"},
      {"measurement": "MIC", "setting": "[10]", "value": 50, "unit": "µg/mL"},
      {"measurement": "MIC", "setting": "[11]", "value": 50, "unit": "µg/mL"}
    ]},
    {"smiles": "CCCCc1ccc(S(=O)(=O)CC(Cl)C#N)s1", "note": "(stereo not drawn) [2(c)]", "values": [
      {"measurement": "MIC", "setting": "[1]", "value": 5, "unit": "µg/mL"},
      {"measurement": "MIC", "setting": "[12]", "value": 500, "unit": "µg/mL"},
      {"measurement": "MIC", "setting": "[2]", "value": 50, "unit": "µg/mL"},
      {"measurement": "MIC", "setting": "[3]", "value": 50, "unit": "µg/mL"},
      {"measurement": "MIC", "setting": "[4]", "value": 500, "unit": "µg/mL"},
      {"measurement": "MIC", "setting": "[5]", "value": 5, "unit": "µg/mL"},
      {"measurement": "MIC", "setting": "[6]", "value": 500, "unit": "µg/mL"},
      {"measurement": "MIC", "setting": "[7]", "value": 50, "unit": "µg/mL"},
      {"measurement": "MIC", "setting": "[8]", "value": 50, "unit": "µg/mL"},
      {"measurement": "MIC", "setting": "[9]", "value": 500, "unit": "µg/mL"},
      {"measurement": "MIC", "setting": "[10]", "value": 50, "unit": "µg/mL"},
      {"measurement": "MIC", "setting": "[11]", "value": 500, "unit": "µg/mL"}
    ]},
    {"smiles": "CCc1ccc(S(=O)(=O)CC(Cl)C#N)s1", "note": "(stereo not drawn) [2(b)]", "values": [
      {"measurement": "MIC", "setting": "[1]", "value": 5, "unit": "µg/mL"},
      {"measurement": "MIC", "setting": "[12]", "value": 50, "unit": "µg/mL"},
      {"measurement": "MIC", "setting": "[2]", "value": 500, "unit": "µg/mL"},
      {"measurement": "MIC", "setting": "[3]", "value": 50, "unit": "µg/mL"},
      {"measurement": "MIC", "setting": "[4]", "value": 500, "unit": "µg/mL"},
      {"measurement": "MIC", "setting": "[5]", "value": 5, "unit": "µg/mL"},
      {"measurement": "MIC", "setting": "[6]", "value": 100, "unit": "µg/mL"},
      {"measurement": "MIC", "setting": "[7]", "value": 100, "unit": "µg/mL"},
      {"measurement": "MIC", "setting": "[8]", "value": 500, "unit": "µg/mL"},
      {"measurement": "MIC", "setting": "[13]", "value": 5, "unit": "µg/mL"},
      {"measurement": "MIC", "setting": "[9]", "value": 500, "unit": "µg/mL"},
      {"measurement": "MIC", "setting": "[10]", "value": 100, "unit": "µg/mL"},
      {"measurement": "MIC", "setting": "[11]", "value": 500, "unit": "µg/mL"}
    ]},
    {"smiles": "N#CC(Cl)CS(=O)(=O)c1cccs1", "note": "(stereo not drawn) [Example 1, 3-(2-Thiophenesulfonyl)-2-chloropropane nitrile]", "values": [
      {"measurement": "MIC", "setting": "[1]", "value": 100, "unit": "µg/mL"},
      {"measurement": "MIC", "setting": "[12]", "value": 100, "unit": "µg/mL"},
      {"measurement": "MIC", "setting": "[2]", "value": 10, "unit": "µg/mL"},
      {"measurement": "MIC", "setting": "[3]", "value": 10, "unit": "µg/mL"},
      {"measurement": "MIC", "setting": "[4]", "value": 100, "unit": "µg/mL"},
      {"measurement": "MIC", "setting": "[5]", "value": 100, "unit": "µg/mL"},
      {"measurement": "MIC", "setting": "[6]", "value": 100, "unit": "µg/mL"},
      {"measurement": "MIC", "setting": "[7]", "value": 10, "unit": "µg/mL"},
      {"measurement": "MIC", "setting": "[8]", "value": 10, "unit": "µg/mL"},
      {"measurement": "MIC", "setting": "[9]", "value": 100, "unit": "µg/mL"},
      {"measurement": "MIC", "setting": "[10]", "value": 100, "unit": "µg/mL"},
      {"measurement": "MIC", "setting": "[11]", "value": 100, "unit": "µg/mL"}
    ]}
  ]
}
